Assay results from ChEMBL document CHEMBL3526144 (Drug Metab Dispos, 2011).

How the values were obtained:
[1] = Inhibition of CYP3A4.1 (unknown origin)-mediated testosterone 6beta-hydroxylation incubated for 10 mins prior to NADPH addition measured after 20 mins by HPLC-UV analysis
[2] = Inhibition of CYP3A4.2 (unknown origin)-mediated testosterone 6beta-hydroxylation incubated for 10 mins prior to NADPH addition measured after 20 mins by HPLC-UV analysis
[3] = Inhibition of CYP3A4.7 (unknown origin)-mediated testosterone 6beta-hydroxylation incubated for 10 mins prior to NADPH addition measured after 20 mins by HPLC-UV analysis
[4] = Inhibition of CYP3A4.16 (unknown origin)-mediated testosterone 6beta-hydroxylation incubated for 10 mins prior to NADPH addition measured after 20 mins by HPLC-UV analysis
[5] = Inhibition of CYP3A4.18 (unknown origin)-mediated testosterone 6beta-hydroxylation incubated for 10 mins prior to NADPH addition measured after 20 mins by HPLC-UV analysis
[6] = tested on: CYP3A4.7 and CYP3A4.1; assay: Ratio of Ki for CYP3A4.7 (unknown origin) to Ki for CYP3A4.1 (unknown origin); format: ADME; settings: human
[7] = tested on: CYP3A4.16 and CYP3A4.1; assay: Ratio of Ki for CYP3A4.16 (unknown origin) to Ki for CYP3A4.1 (unknown origin); settings: human
[8] = tested on: CYP3A4.2 and CYP3A4.1; assay: Ratio of Ki for CYP3A4.2 (unknown origin) to Ki for CYP3A4.1 (unknown origin); format: ADME; settings: human

Ki [1]: 0.076 µM | Ki [2]: 0.045 µM | Ki [3]: 0.179 µM | Ki [4]: 0.041 µM | Ki [5]: 0.082 µM
SMILES: CCC(C)n1ncn(-c2ccc(N3CCN(c4ccc(OCC5COC(Cn6cncn6)(c6ccc(Cl)cc6Cl)O5)cc4)CC3)cc2)c1=O (stereo not drawn) [ITRACONAZOLE]
selectivity ratio [6]: 2.4 | selectivity ratio [7]: 0.54 | selectivity ratio [8]: 0.59
